The values that follow come from patent US5693524A, “Anticoccidial composition of UK-61 689 and Actinomadura mycelium” (Pfizer Inc., priority 1995, dated 1997).

Structures are written as SMILES. In brackets after ≈: the same amount, converted by molar mass. Like-named read-outs stand apart in the source and are kept apart here.

One assay concerns coccidiosis. The note with it: EP application 169011; cited from earlier work.
For the next assay, the system named is Clostridium perfringens. Put plainly: microbe, parasite or virus in culture. Type of assay: cell-based. The note with it: 24 h.
The subject of another assay is Actinomyces pyogenes. The assay is described as follows: In vitro minimal inhibitory concentration (MIC), Actinomyces pyogenes. The note with it: 24 hours. Type of assay: cell-based.
The test system of the next assay is Treponema hyodysenteriae. The assay is described as follows: In vitro minimal inhibitory concentration (MIC), Treponema hyodysenteriae. It is filed as cell-based.
For assay [1], the system named is Gram-positive microorganisms. Put plainly: Inhibitory action against growth of Gram-positive microorganisms in vitro. It is filed as cell-based. On the procedure: In Table I, below, the results of in vitro tests are summarized. For this test each organism is inoculated in a series of test tubes containing nutrient medium and varying concentrations of Antibiotic UK-61,689 to determine the minimal concentration of the compound in g/ml which inhibits the growth of the organism over a period of 24 hours (MIC).

The subject of assay [2] is coccidial infections in poultry. The assay is described as follows: Activity against coccidial infections in poultry (lesion scores).
The next assay relates to E. maxima. The assay is described as follows: Efficacy against coccidial infection in chickens, E. maxima (lesion scores 0 to 3). The following applies: in diet at levels of 15 to 120 ppm.
In another assay the test system is E. brunetti. The assay is described as follows: Efficacy against coccidial infection in chickens, E. brunetti (lesion scores 0 to 3). The following applies: in diet at levels of 15 to 120 ppm.
Another assay has as its system E. necatrix. Put plainly: Efficacy against coccidial infection in chickens, E. necatrix (lesion scores 0 to 3). The note with it: in diet at levels of 15 to 120 ppm.
The test system of a further assay is E. acervulina. Put plainly: Efficacy against coccidial infection in chickens, E. acervulina (lesion scores 0 to 3). The note with it: in diet at levels of 15 to 120 ppm, evaluated after five days.
The next assay has as its system Eimeria tenella. The assay is described as follows: Efficacy against coccidial infection in chickens, Eimeria tenella (lesion scores 0 to 4). The note with it: in diet at levels of 15 to 120 ppm.

For the compound `COC1CCC(OC2CC(C3OC(C)(OC)C(C)CC3C)OC2C2(C)CCC(C3(C)CCC4(CC(O)C(C)C(C(C)C5OC(O)(CC(=O)O)C(C)C(OC6CCC(OC)C(C)O6)C5OC)O4)O3)O2)OC1C` (stereo not shown) [CP-70,228], in the assay on coccidiosis, the “antibiotic / anticoccidial effectiveness” value is given as “antibiotically effective in controlling coccidiosis”.

As to `COC1CCC(OC2CC(C3OC(C)(OC)C(C)CC3C)OC2C2(C)CCC(C3(C)CCC4(CC(OC)C(C)C(C(C)C5OC(O)(CC(=O)O)C(C)C(OC6CCC(OC)C(C)O6)C5OC)O4)O3)O2)OC1C` (stereo not shown) [CP-70,828], the “antibiotic / anticoccidial effectiveness” value in the assay with coccidiosis is listed as “antibiotically effective in controlling coccidiosis”.

Take `COC1CCC(OC2CC(C3OC(C)(O)C(C)CC3C)OC2C2(C)CCC(C3(C)CCC4(CC(O)C(C)C(C(C)C5OC(O)(CC(=O)O)C(C)C(OC6CCC(OC)C(C)O6)C5OC)O4)O3)O2)OC1C` (stereo not shown) [UK-58,852]: in the assay on coccidiosis, the “antibiotic / anticoccidial effectiveness” value is “effective antibiotic, especially anticoccidial agent”.

Turning to `COC1CCC(OC2CC(C3OC(C)(O)C(C)CC3C)OC2C2(C)CCC(C3(C)CCC4(CC(O)C(C)C(C(C)C5OC(O)(CC(=O)O)C(C)C(O)C5OC)O4)O3)O2)OC1C` (stereo not shown) [UK-61,689], the MIC against Clostridium perfringens (Clostridium perfringens strain 10A006) is 50 µg/mL (≈ 57.3 µM); against Clostridium perfringens (Clostridium perfringens strain 10A009), 12.5 µg/mL (≈ 14.3 µM); against Actinomyces pyogenes (Actinomyces pyogenes strain 14D008), 50 µg/mL (≈ 57.3 µM); against Actinomyces pyogenes (Actinomyces pyogenes strain 14D011), 50 µg/mL (≈ 57.3 µM); in the assay with Actinomyces pyogenes (Trueperella pyogenes, Actinomyces pyogenes strain 14D002, read-out: MIC) it was 50 µg/mL (≈ 57.3 µM); against Treponema hyodysenteriae (Brachyspira hyodysenteriae, 24 h, Treponema hyodysenteriae strain 94A001) it was 3.12 µg/mL (≈ 3.57 µM). Also, the MIC in the assay on Treponema hyodysenteriae (Brachyspira hyodysenteriae, 24 h, Treponema hyodysenteriae strain 94A002) was determined as 3.12 µg/mL (≈ 3.57 µM); in the assay on Treponema hyodysenteriae (Brachyspira hyodysenteriae, Treponema hyodysenteriae strain 94A007, 24 hours, read-out: MIC), 1.56 µg/mL (≈ 1.79 µM); with Treponema hyodysenteriae (Treponema hyodysenteriae strain 94A008, 24 hours) it was 1.56 µg/mL (≈ 1.79 µM). In addition, in assay [1], the “inhibitory action against the growth of Gram-positive microorganisms” value is listed as “exhibits inhibitory action against the growth of a number of Gram-positive microorganisms”. In addition, the “activity against coccidial infections in poultry” value in assay [2] is listed as “excellent activity”. For the same compound, in the assay on E. maxima, the “controlling infections due to E. maxima” value was “effective in controlling infections”. Moreover, in the assay on E. brunetti, the “controlling infections due to E. brunetti” value was “effective in controlling infections”. In addition, the “controlling infections due to E. necatrix” value with E. necatrix was “effective in controlling infections”. Besides, the “controlling infections due to E. acervulina” value in the assay with E. acervulina is “effective in controlling infections”. Moreover, the “controlling infections due to Eimeria tenella” value with Eimeria tenella is recorded as “effective in controlling infections”.
